Laboratory results reported in patent publication US12371752B2 (priority 2019, dated 2025).

Test system: Arthrobacter ureafaciens-derived neuraminidase
Experiment: Reactivity of probe with Arthrobacter ureafaciens-derived neuraminidase (time-dependent fluorescence intensity)
Assay type: biochemical
Details: probe 1 μM, 0.01 U neuraminidase, 100 mm NaOAc, 2 mM CaCl2, pH7.4, 37° C., excitation 490 nm, emission 520 nm
Experimental: A probe (HMRef-S-Neu5Ac) was dissolved in dimethyl sulfoxide (DMSO, fluorescence measurement grade, Dojindo Laboratories) to obtain a stock solution. The stock solution was diluted with a buffer solution (100 mm NaOAc, 2 mM CaCl2, pH7.4) such that a final concentration of the probe became 1 μM, to obtain a measurement solution.
A fluorescence spectrum of the measurement solution was obtained by Hitachi F-700, every one second (excitation wavelength 490 nm, emission wavelength 520 nm). Sixty seconds after initiation of measurement, 0.01 U of Arthrobacter ureafaciens-derived neuraminidase was added singly or in combination with an enzyme inhibitor.

SMILES: CC(=O)N[C@H]1[C@H]([C@H](O)[C@H](O)CO)O[C@@](Oc2ccc(COc3ccc4c(c3)Oc3cc(NCC(F)(F)F)ccc3C43OCc4ccccc43)cc2)(C(=O)O)C[C@@H]1O (stereo partly shown) [HMRef-S-Neu5Ac]
- increase of fluorescence intensity by the reaction with the bacterium-derived neuraminidase: 130 times
